Assay results from patent publication US11819561B2, “Oral care compositions” (Colgate-Palmolive Company, priority 2020, dated 2023).

Columns and labels:
[1] = Visual observation of formulation clarity and precipitation; assay type: physicochemical; conditions: Example 4, other cationic surfactants
Experimental: For the following experiments, a 0.2 wt. % aqueous solution of chlorhexidine gluconate, and a 10.0 wt. % aqueous solution of decyl glucoside (“APG”) are prepared. The pH of the decyl glucoside solution is adjusted to 5.5-7.0 using citric acid. For each formulation, the appropriate amount of the decyl glucoside solution is added to appropriate amounts of the chlorhexidine stock solution. STPP is then added to each formulation, and the mixture is agitated by a bath sonicator until no large solids remained. Additional citric acid is added to adjust the pH to 5.5-7.0. The formulations are then agitated for an additional five minutes, then allowed to equilibrate for 30 minutes before observation and transmittance measurements. For the following experiments, a 0.2 wt. % aqueous solution of chlorhexidine gluconate, and a 2.0 wt. % aqueous solution of CAPB are prepared. STPP is added to the chlorhexidine solution to provide 1.6 wt. % STPP. For each formulation, the appropriate amount of the CAPB solution is added to appropriate amounts of the chlorhexidine/STPP stock solution. The mixture is agitated by a bath sonicator, and then additional citric acid is added to adjust the pH to 6.12-6.19. The formulations are then agitated for an additional five minutes, then allowed to equilibrate for 18 hours before observation. […]

bacteria in saliva = experiment: Alamar blue test for antimicrobial activity; assay type: cell-based
Experimental: Antimicrobial activity of the formulations is tested to determine whether the chlorhexidine is fully active. The Alamar blue test for antimicrobial activity is conducted according to standard methodology. Bacteria inoculum is prepared by diluting fresh saliva 2× with deionized water, followed by centrifugation at 8000 G/25° C. for 10 min, and decanting the upper clear liquid into a glass jar. The negative control (A) is distilled water. The positive control (B) is 2 wt. % chlorhexidine gluconate solution. The APG control (C) is a 10 wt. % decyl glucoside solution. The two test solutions are: (D) 2 wt. % chlorhexidine gluconate with 10 wt. % decyl glucoside; and (E) 2 wt. % chlorhexidine gluconate with 10 wt. % decyl glucoside solution, with 14% w/w STPP added. Each of the test solutions is combined with saliva in a weight ratio of 1:10 (solution to saliva). The pH of each mixture is adjusted to 5.5-7 by adding citric acid. The mixtures are vortexed for 1 minute, and incubated at 37° C. for 30 minutes. Subsequent addition of 200 μL of Alamar Blue dye immediately produced blue color in all samples and pictures were taken for comparison at different time intervals (0 hours, 24 hours, 48 hours) to show the evolution of color development. A blue color indicates bacterial kill in saliva and no bacterial growth, while a pink color indicates viable bacteria are still present. […]

Compound: benzalkonium chloride
- Stabilization effect on CHX/STPP [1]: stabilization effect was not observed

Compound: cocamidopropyl betaine [Sample (C) (CAPB contr)]
- Alamar Blue color change (bacteria in saliva; Example 2 (CAPB)): color change from blue to pink after two days

Compound: CCCCCCCCCCO[C@@H]1O[C@H](CO)[C@@H](O)[C@H](O)[C@H]1O [Sample (C) (APG contr), decyl glucoside]
- Alamar Blue color change (bacteria in saliva; Example 1 (APG)): color change from blue to pink after two days
